This passage reports Ki results from BindingDB's records for doi:10.1021/jm00029a008 (Dupont Pharmaceuticals, 1994).

Molecules are shown by their SMILES. Counter-ions that a name gives are not always drawn.

Experiment [1] in a line: Binding affinity for sigma receptor of guinea pig whole brain using [3H]-[…] radioligand.
Experiment [2] concerns the target D(2) dopamine receptor (guinea pig). In words: Binding affinity for dopamine D2 receptor using [3H]spiperone in guinea pig striatum.

In experiment [1], `O=C1c2ccccc2CCC12CCN(Cc1ccccc1)CC2` registered a Ki of 0.001 µM.

Regarding `O=C1c2ccccc2CCC12CCN(Cc1ccc3ccccc3c1)CC2` [1'-(2-naphthylmethyl)spiro[1,2,3,4-tetrahydronaphthalene-2,4'-(hexahydropyridine)]-1-one ;malate], the results for the Ki in experiment [1] and in experiment [2] were 0.011 µM and more than 10 µM, respectively. The compound `O=C1c2ccccc2CCC12CCN(Cc1ccc(F)cc1)CC2` [1'-(4-fluorobenzyl)spiro[1,2,3,4-tetrahydronaphthalene-2,4'-(hexahydropyridine)]-1-one; hydrochloride] gave a Ki in experiment [1] of 0.004 µM. Regarding `COc1ccc(CN2CCC3(CCc4ccccc4C3=O)CC2)cc1` [1'-(4-methoxybenzyl)spiro[1,2,3,4-tetrahydronaphthalene-2,4'-(hexahydropyridine)]-1-one; hydrochloride], affinity in experiment [1] was put at a Ki of 0.003 µM. Consider `O=C1c2ccccc2CCC12CCN(Cc1ccc([N+](=O)[O-])cc1)CC2` [1'-(4-nitrobenzyl)spiro[1,2,3,4-tetrahydronaphthalene-2,4'-(hexahydropyridine)]-1-one; hydrochloride], for which the values for the Ki in experiment [1] and in experiment [2] were 0.0019 µM and 1.97 µM, respectively. With `O=C1c2ccccc2CCC12CCN(Cc1ccc(C(F)(F)F)cc1)CC2` [1'-(4-trifluoromethylbenzyl)spiro[1,2,3,4-tetrahydronaphthalene-2,4'-(hexahydropyridine)]-1-one; malate], the Ki in experiment [1] amounted to 0.024 µM. Same read-out and setting: for `CC(C)(C)c1ccc(CN2CCC3(CCc4ccccc4C3=O)CC2)cc1` [1'-[4-(tert-butyl)benzyl]spiro[1,2,3,4-tetrahydronaphthalene-2,4'-(hexahydropyridine)]-1-one; hydrochloride] the value was 0.015 µM. With `O=C1c2ccccc2CCC12CCN(CC1CCCCC1)CC2` [1'-cyclohexylmethylspiro[1,2,3,4-tetrahydronaphthalene-2,4'-(hexahydropyridine)]-1-one; hydrochloride], the results for the Ki in experiment [1] and in experiment [2] were 0.002 µM and 1.17 µM, respectively. With `OC1CCc2ccccc2C12CCN(CCc1ccccc1)CC2` (centres undefined) [1'-phenethylspiro[1,2,3,4-tetrahydronaphthalene-1,4'-(hexahydropyridine)]-2-ol], the inhibition constant Ki in experiment [2] was more than 10 µM. In the case of `O=C1CCc2ccccc2C12CCN(CCc1ccccc1)CC2` [1'-phenethylspiro[1,2,3,4-tetrahydronaphthalene-1,4'-(hexahydropyridine)]-2-one], the values for the Ki in experiment [1] and in experiment [2] were 0.013 µM and more than 10 µM, respectively.

As to `O=C1c2ccccc2CCC1C1CCN(Cc2ccccc2)CC1` (centres undefined) [2-(1-Benzyl-piperidin-4-yl)-3,4-dihydro-2H-naphthalen-1-one; hydrochloride], the inhibition constant (Ki) in experiment [1] is 0.004 µM; in experiment [2], 1 µM. For `O=C1c2ccc(F)cc2CCC1C1CCN(Cc2ccccc2)CC1` (centres undefined) [2-(1-Benzyl-piperidin-4-yl)-6-fluoro-3,4-dihydro-2H-naphthalen-1-one], in that order: 0.009 µM and 0.062 µM. In turn, `COc1ccc2c(c1)CCC(C1CCN(Cc3ccccc3)CC1)C2=O` (centres undefined) [2-(1-Benzyl-piperidin-4-yl)-6-methoxy-3,4-dihydro-2H-naphthalen-1-one] came in with a Ki in experiment [1] of 0.007 µM. Turning to `O=C1c2ccccc2CCC1C1CCN(CC2CC2)CC1` (centres undefined) [2-(1-Cyclopropylmethyl-piperidin-4-yl)-3,4-dihydro-2H-naphthalen-1-one; hydrobromide], the Ki was 0.026 µM in experiment [1] and 1.08 µM in experiment [2]. The matching figures for `O=C1c2ccccc2CCC1C1CCN(CCc2ccccc2)CC1` (centres undefined) [2-(1-Phenethyl-piperidin-4-yl)-3,4-dihydro-2H-naphthalen-1-one; hydrobromide]: 0.01 µM and 0.6 µM. On to `CC(C1CC1)N1CCC(C2CCc3ccccc3C2=O)CC1` (centres undefined) [2-[1-(1-Cyclopropyl-ethyl)-piperidin-4-yl]-3,4-dihydro-2H-naphthalen-1-one; hydrobromide], for which the Ki in experiment [1] was 0.026 µM.

In the case of `O=C1c2ccccc2CCC1C1CCN(Cc2ccc(F)cc2)CC1` (centres undefined) [2-[1-(4-Fluoro-benzyl)-piperidin-4-yl]-3,4-dihydro-2H-naphthalen-1-one; hydrochloride], the Ki in experiment [1] is 0.011 µM; in experiment [2], 0.061 µM. For the compound `Cc1ccc(CN2CCC(C3CCc4ccccc4C3=O)CC2)cc1` (centres undefined) [2-[1-(4-Methyl-benzyl)-piperidin-4-yl]-3,4-dihydro-2H-naphthalen-1-one; hydrate], the Ki in experiment [1] stood at 0.008 µM.

The compound `O=C1c2ccccc2CCC1C1CCN(Cc2ccc(C(F)(F)F)cc2)CC1` (centres undefined) [2-[1-(4-Trifluoromethyl-benzyl)-piperidin-4-yl]-3,4-dihydro-2H-naphthalen-1-one; hydrochloride] returned a Ki in experiment [1] of 0.019 µM. As for `CC(C)(C)c1ccc(CN2CCC(C3CCc4ccccc4C3=O)CC2)cc1` (centres undefined) [2-[1-(4-tert-Butyl-benzyl)-piperidin-4-yl]-3,4-dihydro-2H-naphthalen-1-one], the Ki came to 0.026 µM in experiment [1] and 0.41 µM in experiment [2]. For `O=C1c2cccc(F)c2CCC1C1CCN(CCc2ccccc2)CC1` (centres undefined) [5-Fluoro-2-(1-phenethyl-piperidin-4-yl)-3,4-dihydro-2H-naphthalen-1-one; hydrochloride], in experiment [1], the Ki came out at 0.005 µM. For the compound `O=C1c2ccc(Cl)cc2CCC1C1CCN(CCc2ccccc2)CC1` (centres undefined) [6-Chloro-2-(1-phenethyl-piperidin-4-yl)-3,4-dihydro-2H-naphthalen-1-one; hydrochloride], in experiment [1], the affinity, expressed as Ki, was 0.009 µM. `O=C1c2ccc(F)cc2CCC1C1CCN(CCc2ccccc2)CC1` (centres undefined) [6-Fluoro-2-(1-phenethyl-piperidin-4-yl)-3,4-dihydro-2H-naphthalen-1-one] yielded a Ki in experiment [2] of 0.344 µM. For the compound `O=C1c2ccc(Cl)cc2CCC12CCN(CCc1ccccc1)CC2` [6-chloro-1'-phenethylspiro[1,2,3,4-tetrahydronaphthalene-2,4'-(hexahydropyridine)]-1-one], affinity in experiment [1] was put at a Ki of 0.035 µM.
